Measured values taken from EP1928451B1, “METHODS FOR TREATING SUBSTANCE-RELATED DISORDERS” (SK Biopharmaceuticals Co., LTD, priority 2005, dated 2007).

Legend:
[1] = system: selectively-bred alcohol preferring (P) rats; assay: Acute administration: two-bottle choice alcohol intake in alcohol preferring rats; type: in vivo; conditions: dose of about 45 mg/kg and up, oral
Description: (§1) A compound of the present invention was tested in ethanol preferring rats, a model for acute and chronic drug addiction in humans using an adaptation of a published method (See, Rezvani, AH et al. Alcohol & Alcoholism, Vol. 25, No. 5, pp. 573-575, 1990, Rezvani AH, et al., Alcohol and Alcoholism (Oxford), 2000, 35(1), 76-83).
(§2) An enantiomer of Formula (Ib) was orally administered in a dose range of from about 10 to about 90 mg/kg in test and control treatment groups of 10 rats per group over a period of 14 days. Test conditions reflected approaches for evaluating patterns of drinking (e.g., single or multiple events).
Adult male selectively-bred alcohol preferring (P) rats were used. […]
(§3) Establishment of baseline alcohol intake: Alcohol intake was determined using a standard two-bottle choice method (as described in Murphy et al. 1988; McBride et al. 1990; Rezvani et al. 1990, 1991, 1993, 1995, 1997, Rezvani and Grady, 1994).
Animals were first given free access to water in a graduated Richter tube for 1 day. […] Water and alcohol intake was recorded at 6 and 24 hour after the treatment, food intake was measured at 24 hour. Animal body weight was measured every day. […]
The results were presented as means ±SEM (Standard Error of the Means). […] Statistical differences between treatment and control groups were determined by using ANOVA and Turkey Student's t test for multiple comparisons.

[2] = system: selectively-bred alcohol preferring (P) rats; assay: Chronic administration: two-bottle choice alcohol intake in alcohol preferring rats; type: in vivo
Description: as §1, §2
Adult male selectively-bred alcohol preferring (P) rats were used. The selectively-bred alcohol-preferring (P) rats have been characterized and have been widely used to study the effects of different compounds on voluntary alcohol intake (Rezvani et al, 1990, 1991, 1992a, 1992b, 1999, 2000, 2002; 2003; Murphy et al, 1988; Overstreet et al., 1992, 1999; Li and McBride, 1995).
Rats were housed individually in wire mesh cages under a constant room temperature of 22 +1 °C and 12:12 light-dark cycle (8:00-20:00, dark). Animal were fed Agway Prolab Rat/Mouse/ Hamster 3000 formula and water ad libitum.
as §3
Animals were first given free access to water in a graduated Richter tube for 1 day. After the first day, the animals were given access to only a solution of 10% (v/v) ethanol for 3 consecutive days. During this period animals became accustomed to drinking from Richter tubes and to the taste and pharmacological effects of alcohol. Thereafter, they were given free access to both water and a solution of 10% alcohol for at least 3 consecutive weeks and throughout of the period of study. The rats had free access to food. Water and alcohol intake was recorded at 6 and 24 hour after the treatment, food intake was measured at 24 hour. Animal body weight was measured every day.
The effect of chronic administration of a test compound on alcohol intake and tolerance to the anti-craving effects of the test compound was tested in naïve rats treated (via gavage tube) once a day either vehicle or test compound. A test compound dose of 45 mg/Kg was selected as an effective dose for chronic administration based on the results of the acute administration study phase. Themost effective dose was then used for the chronic adminstiration phase and administered for 14 consecutive days. Alcohol and water intake was recorded 6 and 24 h after each treatment administration and food intake was recorded at 24 hr.
The results were presented as means ±SEM (Standard Error of the Means). Alcohol intake (g/kg) was calculated by multiplying the volume of alcohol consumed in mL by 10% and 0.7893 (a factor representing ethanol density)/body weight in kg. Alcohol preference, expressed as percentage, was calculated as follows (volume of alcohol consumed (mL)/total fluid intake (mL)) x 100 (as described in Rezvani and Grady,. 1994; Rezvani et al., 1997). Statistical differences between treatment and control groups were determined by using ANOVA and Turkey Student's t test for multiple comparisons.

[3] = BL (baseline, before treatment), drug group
[4] = Day 1, 45 mg/Kg once a day via gavage
[5] = Day 2, 45 mg/Kg once a day via gavage
[6] = Day 3, 45 mg/Kg once a day via gavage
[7] = Day 4, 45 mg/Kg once a day via gavage
[8] = Day 5, 45 mg/Kg once a day via gavage
[9] = Day 6, 45 mg/Kg once a day via gavage
[10] = Day 7, 45 mg/Kg once a day via gavage
[11] = Day 8, 45 mg/Kg once a day via gavage
[12] = Day 9, 45 mg/Kg once a day via gavage
[13] = Day 10, 45 mg/Kg once a day via gavage
[14] = Day 11, 45 mg/Kg once a day via gavage
[15] = Day 12, 45 mg/Kg once a day via gavage
[16] = Day 13, 45 mg/Kg once a day via gavage
[17] = Day 14, 45 mg/Kg once a day via gavage

**Q.** For `NC(=O)OC[C@@H](O)c1ccccc1Cl` [Drug], which “effect on alcohol intake” value [1] is on record?
**A.** Its value is “significant effect on alcohol intake”.

**Q.** What about the “tolerance for the test compound's affect on ethanol intake” value ([2]; 45 mg/Kg once a day for 14 consecutive days) of the same molecule?
**A.** Its value is “without developing a tolerance”.

**Q.** And the “Alcohol Intake” value [2, 3]?
**A.** Its value is 5.30 g/kg.

**Q.** What about the “Alcohol Pref” value [2, 3] of the same molecule?
**A.** Its value is 71%.

**Q.** What about the “Body Weight” value [2, 3] of the same molecule?
**A.** Its value is 384 g.

**Q.** And the “Water Intake” value [2, 3]?
**A.** Its value is 30 g/kg.

**Q.** And the “Alcohol Intake” value [2, 4]?
**A.** The value was 1.61 g/kg.

**Q.** What about the “Alcohol Pref” value [2, 4] of the same molecule?
**A.** The value was 28%.

**Q.** What about the “Body Weight” value [2, 4] of the same molecule?
**A.** The value was 418 g.

**Q.** And the “Water Intake” value [2, 4]?
**A.** Its value is 62 g/kg.

**Q.** And the “Alcohol Intake” value [2, 5]?
**A.** The value was 1.31 g/kg.

**Q.** What about the “Alcohol Pref” value [2, 5] of the same molecule?
**A.** Its value is 24%.

**Q.** And the “Body Weight” value [2, 5]?
**A.** Its value is 415 g.

**Q.** And the “Water Intake” value [2, 5]?
**A.** Its value is 60 g/kg.

**Q.** What about the “Alcohol Intake” value [2, 6] of the same molecule?
**A.** Its value is 1.37 g/kg.

**Q.** And the “Alcohol Pref” value [2, 6]?
**A.** The value was 24%.

**Q.** What about the “Body Weight” value [2, 6] of the same molecule?
**A.** Its value is 413 g.

**Q.** And the “Water Intake” value [2, 6]?
**A.** The value was 60 g/kg.

**Q.** And the “Alcohol Intake” value [2, 7]?
**A.** Its value is 1.03 g/kg.

**Q.** What about the “Alcohol Pref” value [2, 7] of the same molecule?
**A.** The value was 16%.

**Q.** And the “Body Weight” value [2, 7]?
**A.** The value was 415 g.

**Q.** And the “Water Intake” value [2, 7]?
**A.** The value was 68 g/kg.

**Q.** What about the “Alcohol Intake” value [2, 8] of the same molecule?
**A.** Its value is 1.24 g/kg.

**Q.** And the “Alcohol Pref” value [2, 8]?
**A.** The value was 21%.

**Q.** And the “Body Weight” value [2, 8]?
**A.** The value was 419 g.

**Q.** What about the “Water Intake” value [2, 8] of the same molecule?
**A.** Its value is 68 g/kg.

**Q.** And the “Alcohol Intake” value [2, 9]?
**A.** Its value is 1.10 g/kg.

**Q.** What about the “Alcohol Pref” value [2, 9] of the same molecule?
**A.** The value was 21%.

**Q.** And the “Body Weight” value [2, 9]?
**A.** The value was 421 g.

**Q.** What about the “Water Intake” value [2, 9] of the same molecule?
**A.** Its value is 61 g/kg.

**Q.** And the “Alcohol Intake” value [2, 10]?
**A.** The value was 1.85 g/kg.

**Q.** And the “Alcohol Pref” value [2, 10]?
**A.** The value was 34%.

**Q.** And the “Body Weight” value [2, 10]?
**A.** The value was 424 g.

**Q.** What about the “Water Intake” value [2, 10] of the same molecule?
**A.** The value was 48 g/kg.

**Q.** What about the “Alcohol Intake” value [2, 11] of the same molecule?
**A.** Its value is 2.21 g/kg.

**Q.** And the “Alcohol Pref” value [2, 11]?
**A.** Its value is 35%.

**Q.** And the “Body Weight” value [2, 11]?
**A.** The value was 426 g.

**Q.** And the “Water Intake” value [2, 11]?
**A.** Its value is 52 g/kg.

**Q.** And the “Alcohol Intake” value [2, 12]?
**A.** Its value is 2.19 g/kg.

**Q.** What about the “Alcohol Pref” value [2, 12] of the same molecule?
**A.** The value was 45%.

**Q.** What about the “Body Weight” value [2, 12] of the same molecule?
**A.** The value was 429 g.

**Q.** What about the “Water Intake” value [2, 12] of the same molecule?
**A.** Its value is 40 g/kg.

**Q.** What about the “Alcohol Intake” value [2, 13] of the same molecule?
**A.** Its value is 3.06 g/kg.

**Q.** What about the “Alcohol Pref” value [2, 13] of the same molecule?
**A.** Its value is 52%.

**Q.** And the “Body Weight” value [2, 13]?
**A.** The value was 431 g.

**Q.** And the “Water Intake” value [2, 13]?
**A.** Its value is 44 g/kg.

**Q.** And the “Alcohol Intake” value [2, 14]?
**A.** Its value is 2.93 g/kg.

**Q.** And the “Alcohol Pref” value [2, 14]?
**A.** The value was 57%.

**Q.** And the “Body Weight” value [2, 14]?
**A.** Its value is 435 g.

**Q.** What about the “Water Intake” value [2, 14] of the same molecule?
**A.** Its value is 30 g/kg.

**Q.** And the “Alcohol Intake” value [2, 15]?
**A.** Its value is 2.67 g/kg.

**Q.** What about the “Alcohol Pref” value [2, 15] of the same molecule?
**A.** Its value is 58%.

**Q.** What about the “Body Weight” value [2, 15] of the same molecule?
**A.** Its value is 436 g.

**Q.** And the “Water Intake” value [2, 15]?
**A.** Its value is 27 g/kg.

**Q.** And the “Alcohol Intake” value [2, 16]?
**A.** The value was 2.37 g/kg.

**Q.** What about the “Alcohol Pref” value [2, 16] of the same molecule?
**A.** Its value is 42%.

**Q.** What about the “Body Weight” value [2, 16] of the same molecule?
**A.** Its value is 431 g.

**Q.** What about the “Water Intake” value [2, 16] of the same molecule?
**A.** Its value is 48 g/kg.

**Q.** And the “Alcohol Intake” value [2, 17]?
**A.** Its value is 2.32 g/kg.

**Q.** And the “Alcohol Pref” value [2, 17]?
**A.** The value was 40%.

**Q.** And the “Body Weight” value [2, 17]?
**A.** The value was 437 g.

**Q.** And the “Water Intake” value [2, 17]?
**A.** The value was 54 g/kg.
